Source: patent US9844217B2, “Allomone repulsive and kairomone attractive compositions for controlling arachnids” (Fideline, priority 2002, dated 2017)

Test system: chicken mites
Experiment: Tests for resistance to other miticides
Set-up: species or system Dermanyssus gallinae
Details: for % deaths 1× dose: 1× the dose on the product's instructions; for % deaths 4× dose: 4× the commercial dose; for % deaths 8× dose: 8× the commercial dose; for % deaths 16× dose: 16× the commercial dose; for % deaths 32× Dose: 32× the commercial dose
Text: The doses were chosen at 1 to 32 times the dose commercially given on the products' instructions.

| Compound | % deaths 1× dose [%] | % deaths 4× dose [%] | % deaths 4× dose (listed as Aphamethrine) [%] | % deaths 8× dose [%] | % deaths 16× dose [%] | % deaths 32× Dose [%] | % deaths 1× dose (listed as Amitraze) |
| --- | --- | --- | --- | --- | --- | --- | --- |
| CC1(C)C(C=C(Cl)Cl)C1C(=O)OC(C#N)c1cccc(Oc2ccccc2)c1 (stereo not drawn) [Aplhamethrine] | 48.1 | 85.2 | 85 | 97.0 | 98.9 | 99.6 |  |
| Cc1ccc(/N=C/N(C)/C=N/c2ccc(C)cc2C)c(C)c1 [Amitraz] | 97.4 | 98.5 |  | 100.00 | 100.00 | 100.0 | most efficient miticide |
| CNC(=O)Oc1cccc2ccccc12 [Carbaryl] | 19.3 | 37.8 |  | 64.4 | 91.1 | 97.8 |  |
| COP(=O)(OC)SCn1c(=O)oc2cc(Cl)cnc21 [Azamethiphos] | 30.0 | 43.3 |  | 54.8 | 100.00 | 97.8 |  |
| COP(=O)(OC)C(O)C(Cl)(Cl)Cl (stereo not drawn) [Trichlorfon] | 20.4 | 39.7 |  | 34.4 | 80.8 | 94.4 |  |
